Data on one compound can be found in ChEMBL document CHEMBL4421729 (2013).

This assay deals with T1, Taste receptor type 2 member 46 (Homo sapiens) (UniProt P59540).
T1 sequence (whole entry): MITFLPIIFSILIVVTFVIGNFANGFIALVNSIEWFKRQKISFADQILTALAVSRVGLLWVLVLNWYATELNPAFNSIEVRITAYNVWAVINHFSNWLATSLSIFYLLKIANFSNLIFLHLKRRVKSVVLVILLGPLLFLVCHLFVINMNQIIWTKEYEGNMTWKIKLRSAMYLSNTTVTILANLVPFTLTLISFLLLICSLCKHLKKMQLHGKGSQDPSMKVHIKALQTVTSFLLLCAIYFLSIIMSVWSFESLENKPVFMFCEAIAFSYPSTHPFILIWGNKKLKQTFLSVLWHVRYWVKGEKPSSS
As to the kind of experiment: Agonist activity human TAS2R46 transiently expressed in HEK293T/Galpha16-gustducin 44 cells assessed as effect on calcium flux by measuring deltaF/F0 ratio by Fluo-4-AM dye based FLIPR assay. It is filed as functional, cell-based.

SMILES strings stand for the structures.

Take `COc1ccc2c(c1)[C@]13CCCC[C@@H]1[C@H](C2)N(C)CC3`: the Activity result was “Dose-dependent effect”.
